# From PubChem BioAssay (NCI)
#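 Dose response: 5 concentrations. Exposure: 48 h. Format: 96-well plates. Endpoint: linear interpolation; highest concentration if not reached. Here, GI50 denotes the concentration required for 50% inhibition of growth. At the TGI there is no net growth.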
# Assays:
# Assay in all cases: inhibition of tumour cell growth, NCI panel, 48 h
# MALME-3M melanoma = system: MALME-3M melanoma
# A498 renal = system: A498 renal
# HS 578T breast = system: HS 578T breast
# SF-539 CNS = system: SF-539 CNS
# SN12C renal = system: SN12C renal
# CAKI-1 renal = system: CAKI-1 renal
# HCT-116 colon = system: HCT-116 colon
# SF-295 CNS = system: SF-295 CNS
# SK-MEL-5 melanoma = system: SK-MEL-5 melanoma
# UO-31 renal = system: UO-31 renal
# MDA-MB-435 = system: MDA-MB-435
# SR leukemia = system: SR leukemia
# DU-145 prostate = system: DU-145 prostate
# OVCAR-3 ovarian = system: OVCAR-3 ovarian
# K-562 leukemia = system: K-562 leukemia
# OVCAR-8 ovarian = system: OVCAR-8 ovarian
# UACC-257 melanoma = system: UACC-257 melanoma
# BT-549 breast = system: BT-549 breast
# MDA-MB-231 breast = system: MDA-MB-231 breast
# T-47D breast = system: T-47D breast
# LOX IMVI melanoma = system: LOX IMVI melanoma
# SK-OV-3 ovarian = system: SK-OV-3 ovarian
# M14 melanoma = system: M14 melanoma
# HCT-15 colon = system: HCT-15 colon
# SK-MEL-2 melanoma = system: SK-MEL-2 melanoma
# OVCAR-5 ovarian = system: OVCAR-5 ovarian
# HL-60(TB) leukemia = system: HL-60(TB) leukemia
# RXF 393 renal = system: RXF 393 renal
# RPMI-8226 leukemia = system: RPMI-8226 leukemia
# NCI-H460 lung = system: NCI-H460 lung
# SNB-75 CNS = system: SNB-75 CNS
# SF-268 CNS = system: SF-268 CNS
# 786-0 renal = system: 786-0 renal
# ACHN renal = system: ACHN renal
# SK-MEL-28 melanoma = system: SK-MEL-28 melanoma
# MDA-MB-468 breast = system: MDA-MB-468 breast
# EKVX NSCLC = system: EKVX NSCLC
# A549 NSCLC = system: A549 NSCLC
# IGROV1 ovarian = system: IGROV1 ovarian
# MOLT-4 leukemia = system: MOLT-4 leukemia
# HCC-2998 colon = system: HCC-2998 colon
# NCI-H23 lung = system: NCI-H23 lung
# MCF7 breast = system: MCF7 breast
# SNB-19 CNS = system: SNB-19 CNS
# NCI-H226 lung = system: NCI-H226 lung
# CCRF-CEM leukemia = system: CCRF-CEM leukemia
# COLO 205 colon = system: COLO 205 colon
# HOP-92 NSCLC = system: HOP-92 NSCLC
# U251 CNS = system: U251 CNS
# NCI-H522 lung = system: NCI-H522 lung
# UACC-62 melanoma = system: UACC-62 melanoma
# HOP-62 NSCLC = system: HOP-62 NSCLC
# SW-620 colon = system: SW-620 colon
# OVCAR-4 ovarian = system: OVCAR-4 ovarian
# HT29 colon = system: HT29 colon
# KM12 colon = system: KM12 colon
# PC-3 prostate = system: PC-3 prostate
# TK-10 renal = system: TK-10 renal
smiles,measurement,setting,value
CC1=C(C(=O)Nc2ccccc2)C(c2ccc3ccccc3c2)n2c(nc3ccccc32)N1 (stereo unspecified),GI50,MALME-3M melanoma,18.3 µM
same,TGI,MALME-3M melanoma,40.3 µM
same,GI50,A498 renal,23.3 µM
same,TGI,A498 renal,63.3 µM
same,GI50,HS 578T breast,15.6 µM
same,TGI,HS 578T breast,57.2 µM
same,GI50,SF-539 CNS,15.5 µM
same,TGI,SF-539 CNS,30.4 µM
same,GI50,SN12C renal,17.1 µM
same,TGI,SN12C renal,40.2 µM
same,GI50,CAKI-1 renal,19.2 µM
same,TGI,CAKI-1 renal,56.3 µM
same,GI50,HCT-116 colon,13.4 µM
same,TGI,HCT-116 colon,33.1 µM
same,GI50,SF-295 CNS,17 µM
same,TGI,SF-295 CNS,37.6 µM
same,GI50,SK-MEL-5 melanoma,58.6 µM
same,TGI,SK-MEL-5 melanoma,> 100 µM
same,GI50,UO-31 renal,12.6 µM
same,TGI,UO-31 renal,39.9 µM
same,GI50,MDA-MB-435,41.6 µM
same,TGI,MDA-MB-435,> 100 µM
same,GI50,SR leukemia,22 µM
same,TGI,SR leukemia,> 100 µM
same,GI50,DU-145 prostate,18.2 µM
same,TGI,DU-145 prostate,62.3 µM
same,GI50,OVCAR-3 ovarian,16.4 µM
same,TGI,OVCAR-3 ovarian,31.9 µM
same,GI50,K-562 leukemia,7.06 µM
same,TGI,K-562 leukemia,> 100 µM
same,GI50,OVCAR-8 ovarian,16.9 µM
same,TGI,OVCAR-8 ovarian,35.9 µM
same,GI50,UACC-257 melanoma,67.1 µM
same,TGI,UACC-257 melanoma,> 100 µM
same,GI50,BT-549 breast,28 µM
same,TGI,BT-549 breast,> 100 µM
same,GI50,MDA-MB-231 breast,20.4 µM
same,TGI,MDA-MB-231 breast,41.5 µM
same,GI50,T-47D breast,58.5 µM
same,TGI,T-47D breast,> 100 µM
same,GI50,LOX IMVI melanoma,14.3 µM
same,TGI,LOX IMVI melanoma,31 µM
same,GI50,SK-OV-3 ovarian,21.5 µM
same,TGI,SK-OV-3 ovarian,85.7 µM
same,GI50,M14 melanoma,33.4 µM
same,TGI,M14 melanoma,> 100 µM
same,GI50,HCT-15 colon,16.4 µM
same,TGI,HCT-15 colon,56.2 µM
same,GI50,SK-MEL-2 melanoma,22.1 µM
same,TGI,SK-MEL-2 melanoma,71.5 µM
same,GI50,OVCAR-5 ovarian,28 µM
same,TGI,OVCAR-5 ovarian,95.6 µM
same,GI50,HL-60(TB) leukemia,13.7 µM
same,TGI,HL-60(TB) leukemia,> 100 µM
same,GI50,RXF 393 renal,11.8 µM
same,TGI,RXF 393 renal,40.5 µM
same,GI50,RPMI-8226 leukemia,20 µM
same,TGI,RPMI-8226 leukemia,> 100 µM
same,GI50,NCI-H460 lung,15 µM
same,TGI,NCI-H460 lung,33.6 µM
same,GI50,SNB-75 CNS,10.4 µM
same,TGI,SNB-75 CNS,30.5 µM
same,GI50,SF-268 CNS,27.3 µM
same,TGI,SF-268 CNS,> 100 µM
same,GI50,786-0 renal,19.6 µM
same,TGI,786-0 renal,38.6 µM
same,GI50,ACHN renal,17 µM
same,TGI,ACHN renal,35.3 µM
same,GI50,SK-MEL-28 melanoma,21.2 µM
same,TGI,SK-MEL-28 melanoma,56.4 µM
same,GI50,MDA-MB-468 breast,14.1 µM
same,TGI,MDA-MB-468 breast,35.1 µM
same,GI50,EKVX NSCLC,16 µM
same,TGI,EKVX NSCLC,46.2 µM
same,GI50,A549 NSCLC,13.5 µM
same,TGI,A549 NSCLC,33.2 µM
same,GI50,IGROV1 ovarian,25.8 µM
same,TGI,IGROV1 ovarian,85.7 µM
same,GI50,MOLT-4 leukemia,5.71 µM
same,TGI,MOLT-4 leukemia,72 µM
same,GI50,HCC-2998 colon,34 µM
same,TGI,HCC-2998 colon,> 100 µM
same,GI50,NCI-H23 lung,27.7 µM
same,TGI,NCI-H23 lung,> 100 µM
same,GI50,MCF7 breast,9.12 µM
same,TGI,MCF7 breast,27.7 µM
same,GI50,SNB-19 CNS,22.7 µM
same,TGI,SNB-19 CNS,59.2 µM
same,GI50,NCI-H226 lung,12.9 µM
same,TGI,NCI-H226 lung,34.8 µM
same,GI50,CCRF-CEM leukemia,8.63 µM
same,TGI,CCRF-CEM leukemia,> 100 µM
same,GI50,COLO 205 colon,26.5 µM
same,TGI,COLO 205 colon,> 100 µM
same,GI50,HOP-92 NSCLC,15.3 µM
same,TGI,HOP-92 NSCLC,36.5 µM
same,GI50,U251 CNS,16.3 µM
same,TGI,U251 CNS,32.5 µM
same,GI50,NCI-H522 lung,18.1 µM
same,TGI,NCI-H522 lung,45.7 µM
same,GI50,UACC-62 melanoma,20.3 µM
same,TGI,UACC-62 melanoma,63.5 µM
same,GI50,HOP-62 NSCLC,15.4 µM
same,TGI,HOP-62 NSCLC,31.6 µM
same,GI50,SW-620 colon,22.3 µM
same,TGI,SW-620 colon,> 100 µM
same,GI50,OVCAR-4 ovarian,15.4 µM
same,TGI,OVCAR-4 ovarian,45.3 µM
same,GI50,HT29 colon,24.4 µM
same,TGI,HT29 colon,69.2 µM
same,GI50,KM12 colon,31.9 µM
same,TGI,KM12 colon,> 100 µM
same,GI50,PC-3 prostate,12.4 µM
same,TGI,PC-3 prostate,31.4 µM
same,GI50,TK-10 renal,19.3 µM
same,TGI,TK-10 renal,48.6 µM
